{
  "source": "patent US11730722B2",
  "about": "“Corneal endothelium ECM therapeutic medicaments” (KYOTO PREFECTURAL PUBLIC UNIVERSITY CORPORATION, priority 2013, dated 2023)",
  "type_in_all_cases": "cell-based, human",
  "key": {"iFECD [1]": {"system": "iFECD", "assay": "Immunostaining of extracellular matrix-constituting proteins with SB431542", "conditions": "FIG. 8", "method": "For a tissue staining test, cultured cells were put in Lab-TekTM Chamber SlidesTM (NUNC A/S, Roskilde, Denmark), fixed with 4% formaldehyde for 10 minutes at room temperature (RT), and incubated with 1% bovine serum albumin (BSA) for 30 minutes. […] In order to examine expression of an extracellular matrix produced by cells, a 1:200 dilution of each of antibodies against collagen type I, collagen type IV, and Fibronectin was used to carry out. For a secondary antibody, a 1:2000 dilution of Alexa Fluor (registered trademark) 488 labeled, or Alexa Fluor (registered trademark) 594 labeled goat anti-mouse IgG (Life Technologies) was used. Cell nuclei were then stained with DAPI (Vector Laboratories, Inc., Burlingame, Calif.) or PI (Sigma-Aldrich). A slide was then observed under a fluorescence microscope (TCS SP2 AOBS; Leica Microsystems, Welzlar, Germany). Then, expression of collagen type I, collagen type IV, and Fibronectin was similarly examined by immunostaining. The immunostaining was carried out in accordance with the above-described examples, provided that the following antibodies were used as antibodies for collagen type I, collagen type IV, and Fibronectin. An antibody against collagen type I: Anti collagen type I (Rabbit polyclonal) ([…] antibodies and assays, Cat no.: 600-401-103S) An antibody against collagen type IV: collagen type IV (Rabbit polyclonal)(Abcam, Cat no.: ab6586) An antibody against Fibronectin: Anti-fibronectin (mouse monoclonal) (BD Biosciences, Cat no.: 610077)"}, "iFECD [2]": {"system": "iFECD", "assay": "Real-time PCR of gene expression with TGF-beta signal inhibiting agent SB431542", "conditions": "SB431542 0, 1, 3, 10 μM, FIG. 7, p<0.01", "method": "Real-time PCR method: In addition, PCR was performed by a Taqman method for Snail1, Snail2, or ZEB1 in accordance with the following method. A Taqman probe was purchased from INVITROGEN. The mRNA amount of collagen type I, collagen type IV, and Fibronectin was examined by a real-time PCR method. RNEasy (QIAGEN, Catalog number: 74106) was used in extraction of the total RNA from cells. The extracted RNA was subjected to a reverse transcription reaction (42° C., 60 minutes) with ReverTra Ace (TOYOBO Co., Ltd., Catalog number: TRT-101), and collagen type I, collagen type IV, and Fibronectin were amplified with a reaction reagent TaqMan Fast Advanced mastermix (Applied Biosystems) using GAPDH as an internal standard. Probes (a labeled primer set available from Applied Biosystems) described below was used in the PCR reaction, which was performed in the StepOne™ (Applied Biosystems) real-time PCR system. It was then examined whether a TGF-beta signal inhibiting agent, SB431542, can be used to inhibit a TGF-beta signal and adjust extracellular matrix abnormality in a corneal endothelium. SB431542 was obtained from TOCRIS Corporation (Catalog number: 1614). The gene expression amount was confirmed by real-time PCR. Real-time PCR was carried out in accordance with the above-described examples. The following probes were used for collagen type I, collagen type IV, collagen type VIII, and Fibronectin. Collagen type I Hs00164004_ml COL1A1 Collagen type IV Hs00266327_ml COL4A1 Collagen type VIII Hs00697025_ml COL8A2 Fibronectin Hs01549976_ml FN1 GAPDH TaqMan® pre developed Assay Reagents Human GADPH (cat no.: 4333764F)"}, "iFECD [3]": {"system": "iFECD", "assay": "HE-staining of extracellular matrix on Transwell with SB431542", "conditions": "iFECD on Transwell without serum, fixed one week later; FIG. 9; p<0.01", "method": "The iHCEC and the iFECD were cultured in DMEM on Transwell without serum, one week after which they were fixed in a confluent state and HE-stained. The procedure is as described below. If required, deparaffinization (for example, with pure ethanol) and water washing were carried out, and the sample was immersed in hematoxylin from Omni for 10 minutes. Thereafter, water washing with running water was performed, and ammonia water was used for developing color for 30 seconds. Thereafter, water washing with running water for 5 minutes, staining for 2 minutes with a ten-fold diluted solution of eosin hydrochloride, dehydration, lucidification, and mounting were performed. […] Further, the iHCEC and the iFECD were cultured on Transwell Permeable Supports: 0.4 μm, six well plates (Costar, Cat no.: 3450) without serum, one week after which they were fixed in a confluent state and HE-stained. The HE-staining was carried out in accordance with the procedure of the above-described examples."}},
  "data": [
    {"smiles": "NC(=O)c1ccc(-c2nc(-c3ccc4c(c3)OCO4)c(-c3ccccn3)[nH]2)cc1", "note": "[SB431542, 4-[4-(1,3-benzodioxol-5-yl)-5-(2-pyridinyl)-1H-imidazol-2-yl]benzamide]", "values": [
      {"measurement": "expression of Fibronectin in a protein level (immunostaining)", "setting": "iFECD [1]", "value": "suppressed"},
      {"measurement": "expression of collagen type I in a protein level (immunostaining)", "setting": "iFECD [1]", "value": "suppressed"},
      {"measurement": "expression of collagen type IV in a protein level (immunostaining)", "setting": "iFECD [1]", "value": "suppressed"},
      {"measurement": "expression of collagen type VIII in a protein level (immunostaining)", "setting": "iFECD [1]", "value": "suppressed"},
      {"measurement": "expression amount of Snail1 (real-time PCR)", "setting": "iFECD [2]", "value": "significant decrease"},
      {"measurement": "expression amount of ZEB1 (real-time PCR)", "setting": "iFECD [2]", "value": "significant decrease"},
      {"measurement": "gene expression of Fibronectin (real-time PCR)", "setting": "iFECD [2]; iFECD", "value": "significantly suppressed"},
      {"measurement": "gene expression of collagen type I (real-time PCR)", "setting": "iFECD [2]; iFECD", "value": "significantly suppressed"},
      {"measurement": "gene expression of collagen type IV (real-time PCR)", "setting": "iFECD [2]; iFECD", "value": "significantly suppressed"},
      {"measurement": "gene expression of collagen type VIII (real-time PCR)", "setting": "iFECD [2]; iFECD", "value": "significantly suppressed"},
      {"measurement": "overproduction of an extracellular matrix (thickness, HE-staining)", "setting": "iFECD [3]", "value": "suppressed overproduction of an extracellular matrix in the iFECD to result in the normal level"}
    ]}
  ]
}
